Assay results published in US8415299B2, “Methods for improved avian performance” (priority 2004, dated 2013).
Like-named read-outs stand apart in the source and are kept apart here.

Experiments:
[1] = test system: 96-week old Hy-Line W-36 White Leghorn hens
Source text: Experiment 3. […] The photoperiod serves as the primary environmental signal that regulates reproductive function in many avian species. Increasing the photoperiod promotes maturation of the gonads and reproductive tract, whereas reducing the photoperiod causes the gonads and reproductive tract to regress and molting to occur.

[2] = test system: 66-week-old caged laying hens; conditions: cited from earlier work
turkey breeder hens = assay: Experiment 7: molting of turkey breeder hens with dietary L-thyroxine, porcine thyroid powder or thyroactive iodinated casein, 10 days; format: in vivo; conditions: 10, 20, or 40 mg T4/kg diet
Source text: Experiment 7. Molting of Turkey Breeder Hens with Dietary L-Thyroxine, PorcineThyroid Powder, or Thyroactive Iodinated Casein. Turkey breeder hens were molted with various dietary thyroxine treatments at Diamond K Research, […]. (Jun. 20-Jul. 1, 2005).

[3] = test system: Cobb broiler breeder hens and roosters; format: in vivo; conditions: for # Eggs per pen: 25 ppm feed from 22-Sep, pen 50
Source text: Molting Cobb Broiler Breeder Hens and Roosters with Dietary Thyroxine.

[4] = 20 mg/kg feed, 8 hr L, Day 30-34
[5] = 20 mg/kg feed, 8 hr L, Days 13-15
[6] = 20 mg/kg feed, 8 hr L, Days 16-22
[7] = 20 mg/kg feed, 17 hr L, Day 30-34
[8] = 20 mg/kg feed, 17 hr L, Days 13-15
[9] = 20 mg/kg feed, 17 hr L, Days 16-22
[10] = 40 mg T4/kg test diet, Chamber 6 (17 hr light)
[11] = 40 mg/kg feed, 8 hr L, Day 30-34
[12] = 40 mg/kg feed, 8 hr L, Days 13-15
[13] = 40 mg/kg feed, 8 hr L, Days 16-22
[14] = 40 mg/kg feed, 17 hr L, Day 30-34
[15] = 40 mg/kg feed, 17 hr L, Days 13-15

N[C@@H](Cc1cc(I)c(Oc2cc(I)c(O)c(I)c2)c(I)c1)C(=O)O [L-thyroxine, 3,5,3′,5′-tetraiodothyronine]
Molting ([1]; 20 mg T4/kg groups, either chamber): None of the hens in the Control groups or 20 mg T4/kg groups molted in either chamber
Time within which egg production was significantly reduced ([1]; 20 mg T4/kg, Chamber 6 (17 hr light)): ≤ 8 days
Hen-day egg production ([1]; 20 mg/kg feed 12 d from day 13, 8 hr L, day 30): 6.3%
Feed consumption (FC) [1, 4]: 82.5 g/hen/d
Feed consumption change from days 1-12 (% FCC) [1, 4]: −32.0%
Feed consumption (FC) ([1]; 20 mg/kg feed, 8 hr L, Days 1-12 (pre-treatment)): 121.3 g/hen/d
Feed consumption (FC) [1, 5]: 41.8 g/hen/d
Feed consumption change from days 1-12 (% FCC) [1, 5]: −65.5%
Feed consumption (FC) [1, 6]: 44.5 g/hen/d
Feed consumption change from days 1-12 (% FCC) [1, 6]: −63.3%
Feed consumption (FC) [1, 7]: 135.0 g/hen/d
Feed consumption change from days 1-12 (% FCC) [1, 7]: 11.1%
Feed consumption (FC) ([1]; 20 mg/kg feed, 17 hr L, Days 1-12 (pre-treatment)): 121.5 g/hen/d
Feed consumption (FC) [1, 8]: 58.0 g/hen/d
Feed consumption change from days 1-12 (% FCC) [1, 8]: −52.3%
Feed consumption (FC) [1, 9]: 51.8 g/hen/d
Feed consumption change from days 1-12 (% FCC) [1, 9]: −57.4%
Hens that molted fully ([1]; 40 mg T4/kg Group, Chamber 5 (8 hr light), 7/12): 58%
Loss of initial body weight [1, 10]: approximately 18%
Reduction of feed intake [1, 10]: approximately 65%
Time within which egg production was significantly reduced ([1]; 40 mg T4/kg, Chamber 6 (17 hr light)): ≤ 6 days
Hens that molted fully ([1]; 40 mg T4 kg Group, Chamber 6 (17 hr light)): 100%
Hen-day egg production ([1]; 40 mg/kg feed 12 d from day 13, 17 hr L, day 22): 0.0%
Hen-day egg production ([1]; 40 mg/kg feed 12 d from day 13, 17 hr L, day 24): 0.0%
Hen-day egg production ([1]; 40 mg/kg feed 12 d from day 13, 17 hr L, day 26): 0.0%
Hen-day egg production ([1]; 40 mg/kg feed 12 d from day 13, 17 hr L, day 28): 0.0%
Hen-day egg production ([1]; 40 mg/kg feed 12 d from day 13, 17 hr L, day 30): 0.0%
Hen-day egg production ([1]; 40 mg/kg feed 12 d from day 13, 17 hr L, day 32): 0.0%
Hen-day egg production ([1]; 40 mg/kg feed 12 d from day 13, 17 hr L, day 34): 0.0%
Feed consumption (FC) [1, 11]: 104.8 g/hen/d
Feed consumption change from days 1-12 (% FCC) [1, 11]: −9.5%
Feed consumption (FC) ([1]; 40 mg/kg feed, 8 hr L, Days 1-12 (pre-treatment)): 115.8 g/hen/d
Feed consumption (FC) [1, 12]: 36.8 g/hen/d
Feed consumption change from days 1-12 (% FCC) [1, 12]: −68.2%
Feed consumption (FC) [1, 13]: 35.3 g/hen/d
Feed consumption change from days 1-12 (% FCC) [1, 13]: −69.5%
Feed consumption (FC) [1, 14]: 93.3 g/hen/d
Feed consumption change from days 1-12 (% FCC) [1, 14]: −9.7%
Feed consumption (FC) ([1]; 40 mg/kg feed, 17 hr L, Days 1-12 (pre-treatment)): 103.3 g/hen/d
Feed consumption (FC) [1, 15]: 42.0 g/hen/d
Feed consumption change from days 1-12 (% FCC) [1, 15]: −59.3%
Feed consumption change from days 1-12 (% FCC) ([1]; 40 mg/kg feed, 17 hr L, Days 16-22): −63.7%
Mortality ([1]; 20, 40 mg T4/kg feed 12 days): No mortality occurred in any of the Groups
Time within which egg production was significantly reduced ([1]; 20 and 40 mg T4/kg, Chamber 5 (8 hr light)): ≤ 4 days
Days to target body weight (30% body weight loss) ([2]; 10 mg/kg feed in grape pomace diet after 1-day feed withdrawal): 16 days
Days to target body weight (30% body weight loss) ([2]; corn diet with or without 10 mg/kg, 1-day fast or no fast): 28 days
Effectiveness at regressing reproductive tracts (turkey breeder hens): not as effective as porcine thyroid powder
Tolerance in roosters ([3]; 25 or 40 mg/kg diet, roosters began to stroke blood from the nostrils): males were unable to tolerate these levels of L-thyroxine
# Eggs per pen ([3]; 1-Nov): 0
# Eggs per pen ([3]; 1-Oct): 3
# Eggs per pen ([3]; 2-Nov): 0
# Eggs per pen ([3]; 2-Oct): 1
# Eggs per pen ([3]; 3-Nov): 0
# Eggs per pen ([3]; 3-Oct): 0
# Eggs per pen ([3]; 4-Nov): 0
# Eggs per pen ([3]; 4-Oct): 1
# Eggs per pen ([3]; 5-Oct): 1
# Eggs per pen ([3]; 6-Oct): 0
# Eggs per pen ([3]; 7-Oct): 0
# Eggs per pen ([3]; 8-Oct): 3
# Eggs per pen ([3]; 9-Oct): 1
# Eggs per pen ([3]; 10-Oct): 0
# Eggs per pen ([3]; 11-Oct): 0
# Eggs per pen ([3]; 12-Oct): 0
# Eggs per pen ([3]; 13-Oct): 0
# Eggs per pen ([3]; 14-Oct): 0
# Eggs per pen ([3]; 15-Oct): 0
# Eggs per pen ([3]; 16-Oct): 0
# Eggs per pen ([3]; 16-Sep): 15
# Eggs per pen ([3]; 17-Oct): 0
# Eggs per pen ([3]; 17-Sep): 14
# Eggs per pen ([3]; 18-Oct): 0
# Eggs per pen ([3]; 18-Sep): 11
# Eggs per pen ([3]; 19-Oct): 0
